Assay results taken from the supplement of paper PMC11061612.

How the values were obtained:
Test in all cases: combination Emax (second highest fraction inhibited in the dose matrix, 72 h); higher = more inhibition; extreme values may be limits of the assay
SK-N-AS (Neuroblastoma) = system: SK-N-AS (Neuroblastoma)
Method in brief: (§1)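 Bliss excess equals the observed combination effect minus the expected value EA + EB − EA·EB, where EA and EB are the effects of each agent alone. Combination Emax is the second-highest inhibition within the matrix. Inhibition was scaled from CellTiter-Glo 2.0 luminescence, with 0 set by vehicle wells and 1 by blank wells, after 72 hours of two-drug dosing of cells plated in 1536-well plates.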

[1] = system: SKN (Other Solid Carcinomas)
Method in brief: as §1

[2] = system: MOLT-4 (T-Lymphoblastic Leukemia)
Method in brief: as §1

[3] = system: KMRC-1 (Kidney Carcinoma)
Method in brief: as §1

COLO-679 (Melanoma) = system: COLO-679 (Melanoma)
Method in brief: as §1

[4] = system: ME-180 (Cervical Carcinoma)
Method in brief: as §1

[5] = system: Mo-T (Other Blood Carcinomas)
Method in brief: as §1

[6] = system: MV-4-11 (Acute Myeloid Leukemia)
Method in brief: as §1

[7] = system: NCI-H522 (Lung Adenocarcinoma)
Method in brief: as §1

[8] = system: DU-145 (Prostate Carcinoma)
Method in brief: as §1

[9] = system: EFO-21 (Ovarian Carcinoma)
Method in brief: as §1

[10] = system: ML-2 (Acute Myeloid Leukemia)
Method in brief: as §1

[11] = system: SW982 (Other Solid Carcinomas)
Method in brief: as §1

[12] = system: MOG-G-UVW (Low Grade Glioma)
Method in brief: as §1

[13] = system: KGN (Other Solid Carcinomas)
Method in brief: as §1

Structure (SMILES) | combination Emax (SK-N-AS (Neuroblastoma)) | combination Emax [1] | combination Emax [2] | combination Emax [3] | combination Emax (COLO-679 (Melanoma)) | combination Emax [4] | combination Emax [5] | combination Emax [6] | combination Emax [7] | combination Emax [8] | combination Emax [9] | combination Emax [10] | combination Emax [11] | combination Emax [12] | combination Emax [13]
C=CCn1c(=O)c2cnc(Nc3ccc(N4CCN(C)CC4)cc3)nc2n1-c1cccc(C(C)(C)O)n1 [AZD1775] + CCc1c2c(nc3ccc(O)cc13)-c1cc3c(c(=O)n1C2)COC(=O)[C@]3(O)CC [SN-38] (first compound max 1 µM, partner max 0.3 µM) | 0.844 | 0.756 | 1 | 0.534 | 0.632 | 0.973 | 0.817 | 0.999 | 0.7 | 0.598 | 0.466 | 1 | 0.866 | 0.945 | 0.833
C=CCn1c(=O)c2cnc(Nc3ccc(N4CCN(C)CC4)cc3)nc2n1-c1cccc(C(C)(C)O)n1 [AZD1775] + Nc1ccn([C@@H]2O[C@H](CO)[C@@H](O)C2(F)F)c(=O)n1 [Gemcitabine] (first compound max 1 µM, partner max 0.3 µM) | 0.704 | 0.633 | 1 | 0.717 | 0.76 | 0.94 | 0.766 | 1 | 0.608 | 0.542 | 0.482 | 1 | 0.888 | 0.938 | 0.892
CN(CCO)CC[C@H](CSc1ccccc1)Nc1ccc(S(=O)(=O)NC(=O)c2ccc(N3CCC([C@@H](O)c4ccccc4-c4ccc(Cl)cc4)CC3)cc2)cc1S(=O)(=O)C(F)(F)F [AZD4320] + CS(=O)(=O)CCNCc1ccc(-c2ccc3ncnc(Nc4ccc(OCc5cccc(F)c5)c(Cl)c4)c3c2)o1 [Lapatinib] (first compound max 1 µM, 7x7, partner max 10 µM) | 0.197 | 0.759 | 1 | 0.944 | 0.308 | 0.7 | 0.959 | 1 | 0.237 | 0.174 | 0.491 | 1 | 0.968 | 0.298 | 0.494
Cc1c2c(nn1C)CSCc1cc(n(C)n1)CSc1cc(c3ccccc3c1)OCCCc1c(C(=O)O)n(C)c3c-2c(Cl)ccc13 [AZD5991] + CC(=O)O[C@H]1C(=O)[C@@]2(C)[C@H]([C@H](OC(=O)c3ccccc3)[C@]3(O)C[C@H](OC(=O)[C@H](O)[C@@H](NC(=O)c4ccccc4)c4ccccc4)C(C)=C1C3(C)C)[C@]1(OC(C)=O)CO[C@@H]1C[C@@H]2O [Paclitaxel] (first compound max 1 µM, 7x7, partner max 3 µM) | 0.83 | 0.694 | 0.991 | 0.508 | 0.565 | 0.7 | 0.658 | 1 | 0.969 | 0.686 | 0.368 | 1 | 0.953 | 0.986 | 0.916
Cc1c2c(nn1C)CSCc1cc(n(C)n1)CSc1cc(c3ccccc3c1)OCCCc1c(C(=O)O)n(C)c3c-2c(Cl)ccc13 [AZD5991] + CS(=O)(=O)CCNCc1ccc(-c2ccc3ncnc(Nc4ccc(OCc5cccc(F)c5)c(Cl)c4)c3c2)o1 [Lapatinib] (first compound max 1 µM, 7x7, partner max 10 µM) | 0.395 | 0.223 | 0.604 | 0.54 | 0.188 | 0.492 | 0.371 | 1 | 0.626 | 0.198 | 0.277 | 1 | 0.621 | 0.311 | 0.454
Cc1c2c(nn1C)CSCc1cc(n(C)n1)CSc1cc(c3ccccc3c1)OCCCc1c(C(=O)O)n(C)c3c-2c(Cl)ccc13 [AZD5991] + Nc1ccn([C@@H]2O[C@H](CO)[C@@H](O)C2(F)F)c(=O)n1 [Gemcitabine] (first compound max 1 µM, 7x7, partner max 0.3 µM) | 0.717 | 0.582 | 0.992 | 0.737 | 0.782 | 0.754 | 0.685 | 1 | 0.784 | 0.441 | 0.379 | 1 | 0.844 | 0.857 | 0.9
C[C@@H]1COCCN1c1cc(C2([S@](C)(=N)=O)CC2)nc(-c2ccnc3[nH]ccc23)n1 [AZD6738] + C1CC(C1)(C(=O)[O-])C(=O)[O-].N.N.[Pt+2] [Carboplatin] (first compound max 10 µM, 7x7, partner max 10 µM) | 0.69 | 0.427 | 0.984 | 0.521 | 0.625 | 0.663 | 0.366 | 0.974 | 0.194 | 0.351 | 0.263 | 0.916 | 0.665 | 0.723 | 0.79
